Laboratory results: patent US20060287319A1, “Anti-viral compositions comprising heterocyclic substituted phenyl furans and related compounds” (priority 2005, published 2006)
Where two headings read alike, the source gives them in different places.

Tests used:
[1] = biological target: gp41 six-helix bundle formation between N36 and C34 (Human immunodeficiency virus type 1 group M subtype B, UniProt P04578)
Procedure: ELISA for screening for compounds that inhibit the gp41 six-helix bundle formation. A sandwich ELISA as previously described (27) was used to screen for compounds that inhibit the gp41 six-helix bundle formation. Briefly, peptide N36 (2 μM) was pre-incubated with a test compound at the indicated concentrations at 37° C. for 30 min, followed by addition of C34 (2 μM). In the control experiments, N36 was pre-incubated with C34 at 37° C. for 30 min, followed by addition of the test compound. After incubation at 37° C. for 30 min, the mixture was added to wells of a 96-well polystyrene plate (Costar, Corning Inc., Corning, N.Y.) which were precoated with IgG (2 μg/ml) purified from rabbit antisera directed against the N36/C34 mixture. […] Absorbance at 450 nm was measured using an ELISA reader (Ultra 384, Tecan, Research Triangle Park, N.C.). […] Chou (Sloan-Kettering Cancer Center, New York, N.Y.).
A model system of the gp41 six-helix bundle was established by mixing the N— and C-peptides at equal molar concentrations (16).

HIV-1 = details: previously reported; cited from earlier work
HIV-1IIIB in MT-2 cells = experiment: Time-of-addition assay (p24 production); format: cell-based; details: 0.1 μM
Procedure: FIG. 1 NB-206 and its analogs inhibited HIV-1 entry. Inhibition of HIV-1 entry was determined by a time-of-addition assay. NB-206 (2.5 μM) and its analog NB-231 (2.5 μM) were added to MT-2 cells at different intervals post-infection by HIV-1IIIB. AZT (0.1 μM), a reverse transcriptase inhibitor, was included as a control. Each sample was tested in triplicate.
Assessment of anti-HIV-1 infectivity. […] Reactions were terminated by addition of 1N H2SO4.
A time-of-addition assay was carried out to determine whether NB-206 and its analogs are HIV-1 entry inhibitors. MT-2 cells were incubated with HIV-1IIIB at 37° C. for 0, 1, 2, 3, 4, 6, and 8 hrs, respectively, before addition of NB-206 and NB-231 at 2.5 μM. AZT (0.1 μM) was used as a control. After culture for another 2 hrs, the cells were washed to remove the free-virus and compounds. The supernatants were collected on day 4 post-infection for measurement of p24 production.

HIV-1 IIIB [2] = details: for EC50: read-out: EC50 (μM) (M ± SD) for inhibition of p24, HIV-1 IIIB, MT-2 cells
Procedure: Assessment of anti-HIV-1 infectivity. The inhibitory activity of compounds on infection by laboratory-adapted HIV-1 strains was determined as previously described (34). […] For the time-of-addition assay, compounds were added at various time post-infection. Then the culture supernatants were removed and fresh media were added. On the fourth day post-infection, 100 μl of culture supernatants were collected from each well, mixed with equal volumes of 5% Triton X-100 and assayed for p24 antigen, which was quantitated by ELISA (23). Briefly, the wells of polystyrene plates (Immulon 1B, Dynex Technology, Chantilly, Va.) were coated with HIV immunoglobulin (HIVIG), which was prepared from plasma of HIV-seropositive donors with high neutralizing titers against HIV-1IIIB as previously described (36) in 0.085 M carbonate-bicarbonate buffer (pH 9.6) at 4° C. overnight, followed by washes with PBS-T buffer (0.01M PBS containing 0.05% Tween-20) and blocking with PBS containing 1% dry fat-free milk (Bio-Rad Inc., Hercules, Calif.). Virus lysates were added to the wells and incubated at 37° C. for 1 h. […] Reactions were terminated by addition of 1N H2SO4. […] Recombinant protein p24 (US Biological, Swampscott, Mass.) was included for establishing standard dose response curve.

[3] = tested on: HIV-1IIIB infected H9 cells (H9/HIV-1IIIB) and MT-2 cells; experiment: HIV-1 mediated cell-cell fusion (dye transfer assay); format: cell-based; details: H9/HIV-1IIIB with MT-2 cells; read-out: EC50 (μM) (M ± SD) for inhibition of Cell fusion
Procedure: Inhibition of cell-cell fusion. A dye transfer assay was used for detection of HIV-1 mediated cell fusion as previously described (11,25,26). H9/HIV-1IIIB cells were labeled with a fluorescent reagent, Calcein-AM (Molecular Probes, Inc., Eugene, Oreg.) and then incubated with MT-2 cells (ratio=1:5) in 96-well plates at 37° C. for 2 hrs in the presence or absence of compounds tested. The fused and unfused Cacein-labeled HIV-1-infected cells were counted under an inverted fluorescence microscope (Zeiss, Germany) with an eyepiece micrometer disc. The percentage of inhibition of cell fusion and the IC50 values were calculated as previously described (11).

MT-2 cells = tested on: MT-2 cells
Procedure: Detection of in vitro cytotoxicity. The in vitro cytotoxicity of compounds for MT-2 cells was measured by a colorimetric method using XTT tetrazolium dye as previously described (21). Briefly, 100 μl of a compound at a graded concentration was added to equal volume of cells (5×10^5/ml) in a well of 96-well plates. After incubation at 37° C. for 4 days, XTT (1 mg/ml; […]; PolySciences, Inc., Warrington, Pa.) was added. Four hours later, the soluble intracellular formazan was quantitated colorimetrically at 450 nm with a reference at 570 nm.

HIV-1 IIIB [4] = experiment: HIV-1-mediated cytopathic effect (CPE); format: cell-based; details: read-out: EC50 (μM) (M ± SD) for inhibition of CPE
Text: We thus purchased these compounds and tested their inhibitory activity on: 1) HIV-1 replication (p24 production); 2) HIV-1-mediated cytopathic effect (CPE); and 3) HIV-1 Env-induced cell-cell fusion; and their cytotoxicity to MT-2 cells.

[5] = tested on: HIV-1IIIB-infected H9 cells (H9/HIV-1IIIB) cocultured with MT-2 cells; details: single dose 25 μg/ml, HTS
Procedure: Syncytium-formation assay for screening HIV-1 fusion inhibitors. HIV-1IIIB-infected H9 cells (H9/HIV-1IIIB) at 2×10^5/ml were cocultured with MT-2 cells (2×10^6/ml) in the presence of compounds to be screened (final concentration of compound: 25 μg/ml) in a 96-well plate at 37° C. for 2 days. HIV-1 induced syncytium formation was observed under an inverted microscope and scored as “−” (no syncytium was observed), “±” (about 50% syncytia were inhibited), and “+” (no syncytium formation was inhibited). The compounds scored with “−” and “±” were selected for further screening by ELISA for inhibitors against the gp41 six-helix bundle formation.

[6] = read-out: Cytotoxicity CC50 (μM) (M ± SD), MT-2 cells

gp41 six-helix bundle formation between N36 and C34, sequence (P04578 546-581): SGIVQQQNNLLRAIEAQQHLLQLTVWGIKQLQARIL

SMILES | EC50 (HIV-1 IIIB [2]) [µM] | EC50 [3] [µM] | CC50 (MT-2 cells) [µM] | EC50 (HIV-1 IIIB [4]) [µM] | CC50 (MT-2 cells; [6]) [µM] | also measured
O=C(O)c1cccc(-c2ccc(/C=C3\SC(=S)N(c4cccc(C(F)(F)F)c4)C3=O)o2)c1 [NB154] | – | – | – | – | – | IC50 ([1]; read-out: IC50 for inhibition of six-helix bundle formation between N36 and C34, sandwich ELISA, FIG. 3): 1.56 ± 0.12 µM
COc1ccc(S(=O)(=O)[O-])cc1N=Nc1c(S(=O)(=O)[O-])cc2cc(Nc3nc(Nc4ccccc4)nc(Nc4cc(C)c(N=Nc5cc(S(=O)(=O)[O-])cc6cc(S(=O)(=O)[O-])cc(O)c56)cc4OC)n3)ccc2c1O.[Na+].[Na+].[Na+].[Na+] [ADS-J1] | – | – | – | – | – | anti-HIV-1 activities (HIV-1): micromolar levels
Cc1cn([C@H]2C[C@H](N=[N+]=[N-])[C@@H](CO)O2)c(=O)[nH]c1=O [AZT] | – | – | – | – | – | inhibition of HIV-1 replication, added 8 hrs post-infection (HIV-1IIIB in MT-2 cells): still effective
COCCN1C(=O)/C(=C/c2ccc(-c3ccc(Cl)c(C(=O)O)c3)o2)SC1=S [NB201] | 10.7 ± 3.09 | 33.2 ± 0.566 | 118 ± 8.54 | > 100 | – | SI (CC50/EC50) (HIV-1 IIIB [2]): 11.08
O=C(O)c1cccc(-c2ccc(/C=C3\SC(=O)N(c4ccccc4)C3=O)o2)c1 [NB158] | > 100 | > 100 | – | > 100 | > 102 | –
O=C(O)c1cc(-c2ccc(/C=C3\SC(=O)N(c4cccc(Cl)c4)C3=O)o2)ccc1Cl [NB139] | > 100 | > 100 | – | > 100 | 239 ± 14.7 | –
O=C(O)c1cc(-c2ccc(/C=C3\SC(=S)N(c4ccc([N+](=O)[O-])cc4)C3=O)o2)ccc1Cl [NB222] | > 100 | > 100 | – | > 100 | > 328 | –
O=C(O)c1cccc(-c2ccc(/C=C3\SC(=S)N(c4cccc(Cl)c4)C3=O)o2)c1 [NB145] | 0.18 ± 0.02 | 1.77 ± 0.09 | – | 0.18 ± 0.006 | 47.5 ± 6.37 | SI (CC50/EC50) (HIV-1 IIIB [2]; selectivity index): 261.5; inhibition of six-helix bundle formation between N36 and C34 ([1]; single dose 25 μg/ml, HTS): completely inhibited; inhibition of HIV-1 mediated syncytium formation [5]: completely inhibited
CC(C)CN1C(=O)S/C(=C\c2ccc(-c3ccc(Cl)c(C(=O)O)c3)o2)C1=O [NB193] | > 100 | > 100 | > 394 | > 100 | – | –
Cc1ccc(N2C(=O)/C(=C/c3ccc(-c4cccc(C(=O)O)c4)o3)SC2=S)cc1 [NB230] | 0.332 ± 0.095 | 3.08 ± 0.047 | – | 2.16 ± 0.284 | 142 | SI (CC50/EC50) (HIV-1 IIIB [2]; selectivity index): 428.93
C#CCN1C(=O)S/C(=C\c2ccc(-c3cc(C(=O)O)ccc3Cl)o2)C1=O [NB203] | > 100 | > 100 | > 413 | > 100 | – | –
Cc1ccc(NC(=O)CN2C(=O)S/C(=C\c3ccc(-c4cccc(C(=O)O)c4)o3)C2=O)cc1 [NB194] | > 100 | > 100 | 207 ± 4.4 | > 100 | – | –
O=C(O)c1cc(-c2ccc(/C=C3\SC(=S)N(c4ccc(Cl)cc4)C3=O)o2)ccc1Cl [NB213] | 0.514 ± 0.128 | 14.7 ± 0.599 | – | 3.7 ± 1.01 | 93 ± 12.8 | SI (CC50/EC50) (HIV-1 IIIB [2]; selectivity index): 181.04
COc1ccc(N2C(=O)/C(=C/c3ccc(-c4cccc(C(=O)O)c4)o3)SC2=S)cc1 [NB156] | 0.779 ± 0.092 | 2.66 | – | 3.16 ± 1.35 | > 399 | SI (CC50/EC50) (HIV-1 IIIB [2]; selectivity index): >470.59
Cc1ccc(C(=O)O)cc1-c1ccc(/C=C2\SC(=S)NC2=O)o1 [NB188] | > 100 | > 100 | 197 ± 13 | > 100 | – | –
Cc1c(C(=O)O)cccc1-c1ccc(/C=C2\SC(=S)N(CC(=O)O)C2=O)o1 [NB228] | > 100 | > 100 | > 397 | > 100 | – | –
O=C(O)c1cccc(-c2ccc(/C=C3\SC(=S)N(c4cccc5ccccc45)C3=O)o2)c1 [NB221] | 0.46 ± 0.009 | 7.11 ± 0.24 | – | 1.58 ± 0.241 | 34.5 ± 0.46 | SI (CC50/EC50) (HIV-1 IIIB [2]; selectivity index): 75.04
O=C(O)c1cccc(-c2ccc(/C=C3\SC(=S)N(c4cccc(F)c4)C3=O)o2)c1 [NB147] | 10.4 ± 0.84 | > 100 | – | > 100 | 92.3 ± 5.62 | SI (CC50/EC50) (HIV-1 IIIB [2]; selectivity index): 8.85
C#CCN1C(=O)S/C(=C\c2ccc(-c3cccc(C(=O)O)c3)o2)C1=O [NB216] | > 100 | > 100 | 55.3 ± 10 | > 100 | – | –
CCOC(=O)CN1C(=O)S/C(=C\c2ccc(-c3ccc(Cl)c(C(=O)O)c3)o2)C1=O [NB204] | > 100 | > 100 | > 366 | > 100 | – | –
O=C(O)c1cc(-c2ccc(/C=C3\SC(=O)N(c4ccc(Cl)cc4)C3=O)o2)ccc1Cl [NB140] | 12.1 ± 2.73 | > 100 | – | 63.4 ± 1.28 | 126 ± 19.2 | SI (CC50/EC50) (HIV-1 IIIB [2]; selectivity index): 10.41
O=C(O)c1cc(-c2ccc(/C=C3\SC(=O)N(Cc4ccc(F)cc4)C3=O)o2)ccc1Cl [NB191] | > 100 | > 100 | – | > 100 | > 349 | –
CCN1C(=O)/C(=C/c2ccc(-c3ccc(Cl)c(C(=O)O)c3)o2)SC1=S [NB214] | 0.943 ± 0.144 | 2.23 ± 0.082 | 44.8 ± 1.25 | 3.53 ± 0.738 | – | SI (CC50/EC50) (HIV-1 IIIB [2]): 47.5
CN1C(=O)S/C(=C\c2ccc(-c3cc(C(=O)O)ccc3Cl)o2)C1=O [NB186] | > 100 | > 100 | > 440 | > 100 | – | –
